Measured values as given in patent US12559464B2, “Quinazolinone dione compounds and uses thereof” (Edgewise Therapeutics, Inc., priority 2023, dated 2026).

Tests used:
[1] = test system: myosin ATPase, Rabbit Psoas myofibrils; experiment: Myofibril ATPase assay, rabbit psoas (skeletal) myofibrils; assay type: biochemical; conditions: Rabbit Psoas Prep pCa 25 GEOM_MEAN; for Rabbit Psoas EC25 (Y75 value): concentration required to reduce myosin ATP-ase activity by 25%; for Rabbit Psoas Y125 value (marked #): concentration required to increase myosin ATP-ase activity by 25%
[2] = test system: myosin ATPase, Porcine Atria myofibrils; experiment: Myofibril ATPase assay, porcine atria myofibrils; assay type: biochemical; conditions: concentration required to reduce myosin ATP-ase activity by 25%; Porcine Atria Prep pCa 25 GEOM_MEAN
[3] = target: T1, myosin ATPase, Porcine Ventricle myofibrils (Sus scrofa, UniProt P79293); experiment: Myofibril ATPase assay, porcine ventricle myofibrils; assay type: biochemical, porcine (Yucatan minipigs); conditions: concentration required to reduce myosin ATP-ase activity by 25%; Porcine Ventricle Prep pCa 25 GEOM_MEAN
T1 construct: Myofibrils from porcine cardiac muscle was isolated from the left ventricle of Yucatan minipigs; tissue Exemplar Genetics; host or cells: left ventricle of Yucatan minipigs, myofibrils
T1 sequence (P79293 whole entry): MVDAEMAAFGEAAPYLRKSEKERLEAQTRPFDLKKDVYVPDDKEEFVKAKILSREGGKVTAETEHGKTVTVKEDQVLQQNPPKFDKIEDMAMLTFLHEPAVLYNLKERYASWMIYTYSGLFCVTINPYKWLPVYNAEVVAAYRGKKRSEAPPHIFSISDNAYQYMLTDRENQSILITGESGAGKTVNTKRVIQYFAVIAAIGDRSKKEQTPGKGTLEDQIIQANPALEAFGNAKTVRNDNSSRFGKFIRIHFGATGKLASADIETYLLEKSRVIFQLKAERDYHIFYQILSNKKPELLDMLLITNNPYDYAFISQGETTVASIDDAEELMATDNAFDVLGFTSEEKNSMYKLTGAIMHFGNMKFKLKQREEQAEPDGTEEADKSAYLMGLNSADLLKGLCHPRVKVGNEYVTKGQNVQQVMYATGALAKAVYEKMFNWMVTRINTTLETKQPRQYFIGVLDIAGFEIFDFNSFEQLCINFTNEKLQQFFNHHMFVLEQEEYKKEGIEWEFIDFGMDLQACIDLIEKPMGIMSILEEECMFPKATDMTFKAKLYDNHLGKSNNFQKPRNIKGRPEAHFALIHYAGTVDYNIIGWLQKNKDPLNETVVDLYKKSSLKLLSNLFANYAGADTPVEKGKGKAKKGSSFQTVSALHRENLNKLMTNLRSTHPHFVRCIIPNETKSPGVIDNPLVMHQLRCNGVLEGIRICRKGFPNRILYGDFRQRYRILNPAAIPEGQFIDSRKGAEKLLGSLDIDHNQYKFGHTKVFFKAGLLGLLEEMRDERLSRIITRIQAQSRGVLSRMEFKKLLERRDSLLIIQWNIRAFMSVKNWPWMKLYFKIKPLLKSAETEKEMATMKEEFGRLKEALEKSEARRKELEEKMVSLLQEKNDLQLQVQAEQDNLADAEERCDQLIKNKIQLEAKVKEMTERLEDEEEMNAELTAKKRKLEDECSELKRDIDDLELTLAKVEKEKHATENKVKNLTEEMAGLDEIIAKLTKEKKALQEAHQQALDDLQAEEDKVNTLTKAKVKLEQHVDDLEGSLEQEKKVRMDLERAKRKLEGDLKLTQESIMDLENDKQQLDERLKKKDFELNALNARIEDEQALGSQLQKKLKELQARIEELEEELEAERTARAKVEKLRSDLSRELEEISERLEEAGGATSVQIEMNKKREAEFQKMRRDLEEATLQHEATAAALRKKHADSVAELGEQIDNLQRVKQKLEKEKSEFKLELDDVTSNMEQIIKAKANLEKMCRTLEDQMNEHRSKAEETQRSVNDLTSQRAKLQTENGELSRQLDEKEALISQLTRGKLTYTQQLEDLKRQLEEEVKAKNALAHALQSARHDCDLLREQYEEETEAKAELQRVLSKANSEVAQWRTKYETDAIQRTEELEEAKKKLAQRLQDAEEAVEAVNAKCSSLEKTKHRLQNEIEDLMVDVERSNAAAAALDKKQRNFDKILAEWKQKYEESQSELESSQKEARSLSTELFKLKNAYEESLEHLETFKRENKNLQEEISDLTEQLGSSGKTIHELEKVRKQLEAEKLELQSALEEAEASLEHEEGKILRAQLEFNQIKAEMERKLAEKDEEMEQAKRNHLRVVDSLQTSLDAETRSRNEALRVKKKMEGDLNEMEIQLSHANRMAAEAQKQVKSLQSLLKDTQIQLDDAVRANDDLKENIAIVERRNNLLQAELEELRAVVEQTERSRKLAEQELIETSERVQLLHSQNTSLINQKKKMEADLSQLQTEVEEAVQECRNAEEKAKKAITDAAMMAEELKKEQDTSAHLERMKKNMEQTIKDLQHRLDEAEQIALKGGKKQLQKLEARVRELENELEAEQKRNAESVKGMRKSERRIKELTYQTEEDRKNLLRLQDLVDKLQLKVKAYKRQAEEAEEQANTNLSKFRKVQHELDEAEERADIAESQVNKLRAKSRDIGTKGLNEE
Method in brief: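 Myofibrils from Yucatan minipig left ventricle; ADP production coupled via PK-LDH to NADH loss, read kinetically at 340 nm every 1.5–2 min for 75 min in PIPES/MgCl2 pH 7.0 buffer. Slopes normalized to vehicle and fit to 4-parameter logistic; values are concentrations giving 75% (inhibition) or 125% (activation) of vehicle activity.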

Row | SMILES | Rabbit Psoas EC25 (Y75 value) [1] | Porcine Atria EC25 (Y75 value) [2] | Porcine Ventricle EC25 (Y75 value) [3] | Rabbit Psoas Y125 value (marked #) [1]
1 | C[C@H](NC(=O)Cn1c(=O)[nH]c2ccc(F)c(F)c2c1=O)c1ccc(C#N)nn1 (single isomer, unassigned) [Compound 4] | 0.204 µM | 0.178 µM | 4.869 µM | –
2 | C[C@H](NC(=O)[C@H](Cc1ccccc1)n1c(=O)[nH]c2cccc(O)c2c1=O)c1ccc(F)cc1F [Compound 33, (S)-N-((S)-1-(2,4-difluorophenyl)ethyl)-2-(5-hydroxy-2,4-dioxo-1,4-dihydroquinazolin-3(2H)-yl)-3-phenylpropanamide] | – | 100 µM | 100 µM | 51.2^# μM
3 | CC(C)C[C@H](NC(=O)Cn1c(=O)[nH]c2ccccc2c1=O)c1ccc(F)cc1F (single isomer, unassigned) [Compound 70] | – | 100 µM | 100 µM | 90.27^# μM
4 | CC(NC(=O)Cn1c(=O)[nH]c2ccccc2c1=O)c1ccc(F)cc1F (stereo not drawn) [Compound 169, N-(1-(2,4-difluorophenyl)ethyl)-2-(2,4-dioxo-1,4-dihydroquinazolin-3(2H)-yl)acetamide] | 0.494 µM | 2.407 µM | 31.6 µM | –
5 | C[C@H](NC(=O)Cn1c(=O)[nH]c2ccc(F)c(F)c2c1=O)c1ccc(F)cc1F [Compound 39, (S)-2-(5,6-difluoro-2,4-dioxo-1,4-dihydroquinazolin-3(2H)-yl)-N-(1-(2,4-difluorophenyl)ethyl)acetamide] | 0.055 µM | 0.0536 µM | 0.3333 µM | –
6 | O=C(Cn1c(=O)[nH]c2ccccc2c1=O)N[C@H]1CCCc2cc(F)cc(F)c21 (single isomer, unassigned) [Compound 55] | 100 µM | 100 µM | 100 µM | –
7 | C[C@H](NC(=O)Cn1c(=O)[nH]c2ccccc2c1=O)c1ccncc1F (single isomer, unassigned) [Compound 99] | 100 µM | 100 µM | 100 µM | –

The next lines start with the values.

Row | Rabbit Psoas EC25 (Y75 value) [1] | Porcine Atria EC25 (Y75 value) [2] | Porcine Ventricle EC25 (Y75 value) [3] | Rabbit Psoas Y125 value (marked #) [1] | SMILES
8 | 65.656 µM | 33.59 µM | 29.03 µM | – | CC(C)CN(C(=O)Cn1c(=O)[nH]c2ccccc2c1=O)C(C)c1ccc(F)cc1F (stereo not drawn) [Compound 506, N-(1-(2,4-difluorophenyl)ethyl)-2-(2,4-dioxo-1,4-dihydroquinazolin-3(2H)-yl)-N-isobutylacetamide]
9 | 100 µM | 100 µM | 100 µM | – | CC(NC(=O)Cn1c(=O)[nH]c2ccccc2c1=O)c1cccs1 (stereo not drawn) [Compound 606, 2-(2,4-dioxo-1,4-dihydroquinazolin-3(2H)-yl)-N-(1-(thiophen-2-yl)ethyl)acetamide]
10 | 100.00 µM | 100.00 µM | 100.00 µM | – | C[C@@H](NC(=O)C1(n2c(=O)[nH]c3cccc(C#N)c3c2=O)CC1)c1ncc(C#N)cc1F (single isomer, unassigned) [Compound 3014]
11 | 100 µM | 100 µM | 100 µM | – | COc1ccc([C@@H](C)NC(=O)Cn2c(=O)[nH]c3ccccc3c2=O)cc1 (single isomer, unassigned) [Compound 528]
12 | 100 µM | 100 µM | 100 µM | – | Cc1nn(C)cc1C(C)NC(=O)Cn1c(=O)[nH]c2ccccc2c1=O (stereo not drawn) [Compound 602, N-(1-(1,3-dimethyl-1H-pyrazol-4-yl)ethyl)-2-(2,4-dioxo-1,4-dihydroquinazolin-3(2H)-yl)acetamide]
